Results reported in ChEMBL document CHEMBL4270508, “1,3,5-Triazines: A promising scaffold for anticancer drugs development” (Eur J Med Chem, 2017).
pIC50: −log10 of the molar value. Values after ≈ are worked out from the molar mass of the structure shown. Blank lines part the entries; values can stand above or below the molecule they belong to.

Assays:
[1] = target: Ubiquitin-conjugating enzyme E2 B (Homo sapiens, UniProt P63146); assay: Inhibition of human recombinant Rad6B using ubiquitin and histone H2A and ubiquitin-activating enzyme E1 preincubated for 1 hr before ubiquitin and histone H2A addition by SDS-PAGE and immunoblotting analysis
Ubiquitin-conjugating enzyme E2 B, sequence (P63146 whole entry): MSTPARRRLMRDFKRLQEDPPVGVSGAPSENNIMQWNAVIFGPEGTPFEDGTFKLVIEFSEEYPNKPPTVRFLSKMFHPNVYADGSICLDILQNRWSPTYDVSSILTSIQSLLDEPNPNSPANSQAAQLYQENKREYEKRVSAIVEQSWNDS

MDA-MB-231 [2] = assay: Antiproliferative activity in human MDA-MB-231 cells assessed as inhibition of cell proliferation; format: functional, cell-based
MCF7 [3] = assay: Antiproliferative activity in human MCF7 cells assessed as inhibition of cell proliferation; format: functional, cell-based
SK-BR-3 = assay: Antiproliferative activity in human SK-BR-3 cells assessed as inhibition of cell proliferation by SRB/MTT assay; format: functional, cell-based
A549 [4] = assay: Antiproliferative activity in human A549 cells assessed as inhibition of cell proliferation by SRB/MTT assay; format: functional, cell-based
K562 [5] = assay: Antiproliferative activity in human K562 cells assessed as inhibition of cell proliferation by SRB/MTT assay; format: functional, cell-based
HCT-116 = assay: Antiproliferative activity in human HCT116 cells assessed as inhibition of cell proliferation by SRB/MTT assay; format: functional, cell-based
BT-474 = assay: Antiproliferative activity in human BT474 cells assessed as inhibition of cell proliferation by SRB/MTT assay; format: functional, cell-based
HepG2 = assay: Anticancer activity against human HepG2 cells incubated for 48 hrs by SRB assay; format: functional, cell-based; details: HepG2, 48 h
MCF7 [6] = assay: Anticancer activity against human MCF7 cells incubated for 48 hrs by SRB assay; format: functional, cell-based; details: MCF7, 48 h
NCI-H460 = assay: Antiproliferative activity in human NCI-H460 cells incubated for 72 hrs by MTT assay; format: functional, cell-based; details: NCI-H460, 72 h
A549 [7] = assay: Antiproliferative activity in human A549 cells assessed as inhibition of cell proliferation by MTT assay; format: functional, cell-based
[8] = Cytotoxicity in human HO8910 cells assessed as reduction in cell viability incubated for 72 hrs by MTT assay; format: functional, cell-based; details: HO-8910, 72 h
K562 [9] = assay: Cytotoxicity in human K562 cells assessed as reduction in cell viability incubated for 72 hrs by MTT assay; format: functional, cell-based; details: K562, 72 h
PC-3 = assay: Cytotoxicity in human PC3 cells assessed as reduction in cell viability incubated for 72 hrs by MTT assay; format: functional, cell-based; details: PC-3, 72 h
[10] = target: Cyclin-dependent kinase 5/CDK5 activator 1 (Homo sapiens, UniProt Q00535); assay: Inhibition of human recombinant CDK5/p25 using histone H1 and [gamma-33P]ATP incubated fro 30 mins by scintillation counting analysis; format: protein-complex assay
Cyclin-dependent kinase 5/CDK5 activator 1, sequence (Q00535 whole entry): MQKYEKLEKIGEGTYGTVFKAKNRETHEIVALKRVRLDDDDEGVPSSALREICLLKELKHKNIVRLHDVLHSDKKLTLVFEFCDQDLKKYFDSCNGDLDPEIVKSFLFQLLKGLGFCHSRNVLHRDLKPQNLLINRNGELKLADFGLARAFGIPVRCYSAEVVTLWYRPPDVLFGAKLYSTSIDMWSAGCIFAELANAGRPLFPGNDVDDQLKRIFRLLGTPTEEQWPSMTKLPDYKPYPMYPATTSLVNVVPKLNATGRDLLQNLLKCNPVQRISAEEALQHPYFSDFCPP
Cyclin-dependent kinase 5/CDK5 activator 1, sequence (Q15078 whole entry, further chain): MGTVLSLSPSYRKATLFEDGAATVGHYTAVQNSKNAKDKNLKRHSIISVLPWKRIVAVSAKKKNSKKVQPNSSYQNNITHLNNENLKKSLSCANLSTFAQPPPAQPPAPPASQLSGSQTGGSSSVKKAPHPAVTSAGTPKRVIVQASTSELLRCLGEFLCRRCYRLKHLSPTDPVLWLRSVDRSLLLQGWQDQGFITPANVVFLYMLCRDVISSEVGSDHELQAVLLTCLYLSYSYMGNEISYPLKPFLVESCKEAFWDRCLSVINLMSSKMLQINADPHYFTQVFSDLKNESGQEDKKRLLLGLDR

[11] = target: Cyclin-dependent kinase 7/ cyclin H (Homo sapiens, UniProt P50613); assay: Inhibition of human recombinant CDK7/cyclin H using histone H1 and [gamma-33P]ATP incubated fro 30 mins by scintillation counting analysis; format: protein-complex assay
Cyclin-dependent kinase 7/ cyclin H, sequence (P51946 whole entry): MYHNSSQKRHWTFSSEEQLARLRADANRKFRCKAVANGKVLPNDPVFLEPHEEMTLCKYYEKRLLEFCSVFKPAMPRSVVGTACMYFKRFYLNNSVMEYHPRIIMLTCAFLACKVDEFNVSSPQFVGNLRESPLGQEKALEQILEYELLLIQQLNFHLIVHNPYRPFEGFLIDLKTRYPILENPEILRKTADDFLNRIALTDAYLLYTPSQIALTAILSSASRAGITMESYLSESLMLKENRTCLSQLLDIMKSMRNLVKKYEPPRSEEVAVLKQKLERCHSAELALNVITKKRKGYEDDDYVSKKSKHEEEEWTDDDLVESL
Cyclin-dependent kinase 7/ cyclin H, sequence (P50613 whole entry): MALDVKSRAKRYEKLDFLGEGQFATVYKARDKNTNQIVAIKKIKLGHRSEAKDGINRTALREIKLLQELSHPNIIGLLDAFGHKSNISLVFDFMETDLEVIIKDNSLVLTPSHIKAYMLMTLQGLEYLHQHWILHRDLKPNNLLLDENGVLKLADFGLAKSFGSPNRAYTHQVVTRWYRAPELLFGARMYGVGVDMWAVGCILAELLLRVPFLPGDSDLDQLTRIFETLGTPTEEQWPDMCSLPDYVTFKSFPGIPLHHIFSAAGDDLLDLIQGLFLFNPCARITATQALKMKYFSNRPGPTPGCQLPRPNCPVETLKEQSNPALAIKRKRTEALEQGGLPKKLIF

[12] = Inhibition of starfish oocytes CDK1/cyclin B using histone H1 and [gamma-33P]ATP incubated fro 30 mins by scintillation counting analysis; parameters: species or system Asteroidea
CDK9/cyclin T1 = CDK9/cyclin T1 (Homo sapiens, UniProt P50750); assay: Inhibition of human recombinant CDK9/cyclin T expressed in insect cells using pRb fragment (773 to 928 amino acids) and [gamma-33P]ATP incubated fro 30 mins by scintillation counting analysis
CDK9/cyclin T1, sequence (O60563 whole entry, the tested form may be a part): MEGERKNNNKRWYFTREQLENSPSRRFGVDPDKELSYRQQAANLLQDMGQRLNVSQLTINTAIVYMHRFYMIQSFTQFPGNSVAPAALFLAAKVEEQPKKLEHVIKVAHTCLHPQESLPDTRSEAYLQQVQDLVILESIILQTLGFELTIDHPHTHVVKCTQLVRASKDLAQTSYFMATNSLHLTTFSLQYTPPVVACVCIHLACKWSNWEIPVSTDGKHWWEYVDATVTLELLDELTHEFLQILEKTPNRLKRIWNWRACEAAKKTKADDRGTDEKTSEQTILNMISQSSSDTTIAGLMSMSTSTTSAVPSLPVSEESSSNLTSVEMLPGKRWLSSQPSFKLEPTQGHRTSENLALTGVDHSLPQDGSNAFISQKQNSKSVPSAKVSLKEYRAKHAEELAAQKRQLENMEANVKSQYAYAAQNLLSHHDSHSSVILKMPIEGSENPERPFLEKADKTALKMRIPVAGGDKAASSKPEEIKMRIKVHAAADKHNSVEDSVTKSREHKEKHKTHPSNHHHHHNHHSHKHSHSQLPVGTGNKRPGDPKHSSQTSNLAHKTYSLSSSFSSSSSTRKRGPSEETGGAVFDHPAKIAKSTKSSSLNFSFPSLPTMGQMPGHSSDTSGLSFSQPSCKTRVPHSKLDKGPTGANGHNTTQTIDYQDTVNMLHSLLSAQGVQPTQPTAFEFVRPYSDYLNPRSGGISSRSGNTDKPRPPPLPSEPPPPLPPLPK
CDK9/cyclin T1, sequence (P50750 whole entry, the tested form may be a part): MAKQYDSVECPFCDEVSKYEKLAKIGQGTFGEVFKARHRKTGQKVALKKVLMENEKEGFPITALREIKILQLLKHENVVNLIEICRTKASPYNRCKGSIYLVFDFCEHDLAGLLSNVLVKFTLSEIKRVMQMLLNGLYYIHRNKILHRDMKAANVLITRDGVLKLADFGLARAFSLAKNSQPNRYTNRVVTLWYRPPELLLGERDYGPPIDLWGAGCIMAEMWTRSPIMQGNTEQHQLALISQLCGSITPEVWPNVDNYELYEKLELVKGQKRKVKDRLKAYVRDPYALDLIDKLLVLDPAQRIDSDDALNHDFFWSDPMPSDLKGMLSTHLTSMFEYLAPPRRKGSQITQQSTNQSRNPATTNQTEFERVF

HT-29 [13] = assay: Antiproliferative activity in human HT-29 cells incubated for 72 hrs by MTT assay; format: functional, cell-based; details: HT-29, 72 h
MDA-MB-231 [14] = assay: Antiproliferative activity in human MDA-MB-231 cells incubated for 72 hrs by MTT assay; format: functional, cell-based; details: MDA-MB-231, 72 h
MDA-MB-231 [15] = assay: Anticancer activity against human MDA-MB-231 cells incubated for 48 hrs by MTT assay; format: functional, cell-based; details: MDA-MB-231, 48 h
HT-29 [16] = assay: Anticancer activity against human HT-29 cells incubated for 48 hrs by MTT assay; format: functional, cell-based; details: HT-29, 48 h
MCF7 [17] = assay: Anticancer activity against human MCF7 cells incubated for 48 hrs by MTT assay; format: functional, cell-based; details: MCF7, 48 h
HGC-27 = assay: Anticancer activity against human HGC27 cells incubated for 48 hrs by MTT assay; format: functional, cell-based; details: HGC-27, 48 h
[18] = Inhibition of rhodamine-labeled purified porcine brain tubulin polymerization in presence of GTP incubated for 30 mins by epifluorescence microscopy; parameters: species or system Sus scrofa
[19] = tested on: Panel NCI-60 (60 carcinoma cell lines); assay: Growth inhibition of human NCI60 cells incubated for 48 hrs by SRB assay; format: functional, cell-based
Homo sapiens = species: Homo sapiens; assay: Inhibition of PI3K in human A549 cell lysates assessed as remaining enzyme activity at 1 uM pre-incubated for 5 mins before [gamma-32P]ATP addition and further incubated for 20 mins by TLC and autoradiography relative to untreated control

pIC50 [1]: 7.60
Structure (SMILES): Nc1nc(COC(=O)c2ccc([N+](=O)[O-])cc2)nc(Nc2ccccc2)n1

Structure (SMILES): COc1nc(NCc2ccccc2)nc([N+]23CC[N+](CCCl)(CC2)CC3)n1
pIC50 (MDA-MB-231 [2]): 3.95 to 4.39
pIC50 (MCF7 [3]): 3.87 to 5.13

Structure (SMILES): COc1nc(N2CCCCC2)nc([N+]23CC[N+](CCCl)(CC2)CC3)n1
pIC50 (MDA-MB-231 [2]): 3.95 to 4.39
pIC50 (MCF7 [3]): 3.87 to 5.13

pIC50 (SK-BR-3): 5.05
pIC50 (A549 [4]): 5.12
pIC50 (K562 [5]): 5.07
pIC50 (HCT-116): 5.17
pIC50 (BT-474): 5.15
Structure (SMILES): Cc1cc(C)n(-c2nc(N/N=C\c3c[nH]c4ccccc34)nc(Nc3ccc(Br)cc3)n2)n1

IC50 (HepG2): 3.7 µg/mL (≈ 1.74 µM)
IC50 (MCF7 [6]): 2.95 µg/mL (≈ 1.39 µM)
Structure (SMILES): CCCCCCCCCCCCCCCCOC(=O)c1cc(C(=O)OCCCCCCCCCCCCCCCC)cc(-n2cc(-c3nc(-c4cn(-c5cc(C(=O)OCCCCCCCCCCCCCCCC)cc(C(=O)OCCCCCCCCCCCCCCCC)c5)nn4)nc(-c4cn(-c5cc(C(=O)OCCCCCCCCCCCCCCCC)cc(C(=O)OCCCCCCCCCCCCCCCC)c5)nn4)n3)nn2)c1

pIC50 (NCI-H460): 7.15
Structure (SMILES): Clc1ccc(Cn2cc(/C=N/Nc3nc(N4CCOCC4)nc(N4CCOCC4)n3)c3ccccc32)cc1Cl

Structure (SMILES): COc1nc(N2CCOCC2)nc([N+]23CC[N+](CCCl)(CC2)CC3)n1
pIC50 (MDA-MB-231 [2]): 3.95 to 4.39
pIC50 (MCF7 [3]): 3.87 to 5.13

pIC50 (A549 [7]): 5.22
Structure (SMILES): Cc1cc(=O)n2c(n1)N=C(N)NC2c1ccco1 (configuration not stated)

Structure (SMILES): Cc1ccc(Nc2nc(-c3ccccc3)nc(N3CCNCC3)n2)cc1
pIC50 [8]: 5.97
pIC50 (K562 [9]): 6.00
pIC50 (PC-3): 5.65

Structure (SMILES): COc1nc(Nc2ccccc2)nc([N+]23CC[N+](CCCl)(CC2)CC3)n1
pIC50 (MDA-MB-231 [2]): 3.95 to 4.39
pIC50 (MCF7 [3]): 4.91

pIC50 [10]: 6.30 to 7.37
pIC50 [11]: 6.30 to 7.37
pIC50 (CDK9/cyclin T1): 6.30 to 7.37
Structure (SMILES): CC[C@H](CO)Nc1nc(NCc2ccccc2)n2ncc(C(C)C)c2n1
pIC50 [12]: 6.30 to 7.37

pIC50 (HT-29 [13]): 6.47
pIC50 (MDA-MB-231 [14]): 6.22
pIC50 (NCI-H460): 6.12
Structure (SMILES): C=CCc1cc(C)cc(/C=N/NC(=O)Nc2nc(N3CCOCC3)nc(N3CCOCC3)n2)c1O

pIC50 (MDA-MB-231 [15]): 4.82 to 5.32
pIC50 (HT-29 [16]): 4.82 to 5.32
pIC50 (MCF7 [17]): 4.82 to 5.32
Structure (SMILES): c1ccc(Nc2nc(Nc3ccc(-c4nc5ccccc5[nH]4)cc3)nc(N3CCOCC3)n2)cc1
pIC50 (HGC-27): 4.82 to 5.32

Structure (SMILES): CCCCNc1nc(OC)nc([N+]23CC[N+](CCCl)(CC2)CC3)n1
pIC50 (MDA-MB-231 [2]): 3.95 to 4.39
pIC50 (MCF7 [3]): 3.87 to 5.13

Structure (SMILES): COc1nc(Nc2ccc(C)cc2)nc([N+]23CC[N+](CCCl)(CC2)CC3)n1
pIC50 (MDA-MB-231 [2]): 3.95 to 4.39
pIC50 (MCF7 [3]): 5.13

pIC50 (NCI-H460): 7.30
Structure (SMILES): N#Cc1ccc(Cn2cc(/C=N/Nc3nc(N4CCOCC4)nc(N4CCOCC4)n3)c3ccccc32)cc1

pIC50 [18]: 5.44
Structure (SMILES): COc1ccc(CNc2nc(NCc3ccc(OC)cc3)c3ncn(C(C)C)c3n2)cc1 [MYOSEVERIN]

Structure (SMILES): COC(=O)[C@H](CO)Nc1nc(OC)nc([N+]23CC[N+](CCCl)(CC2)CC3)n1
pIC50 (MDA-MB-231 [2]): 3.95 to 4.39
pIC50 (MCF7 [3]): 3.87 to 5.13

Structure (SMILES): COC(=O)[C@H](Cc1ccccc1)Nc1nc(OC)nc([N+]23CC[N+](CCCl)(CC2)CC3)n1
pIC50 (MDA-MB-231 [2]): 3.95 to 4.39
pIC50 (MCF7 [3]): 3.87 to 5.13

Structure (SMILES): COC(=O)[C@H](C)Nc1nc(OC)nc([N+]23CC[N+](CCCl)(CC2)CC3)n1
pIC50 (MDA-MB-231 [2]): 3.95 to 4.39
pIC50 (MCF7 [3]): 3.87 to 5.13

Structure (SMILES): O=C(O)CCCc1ccc(N(CCCl)CCCl)cc1 [CHLORAMBUCIL]
pIC50 (MCF7 [3]): 4.54

Structure (SMILES): Nc1nc2nc(-c3ccccc3)nc(-c3ccccc3)n2n1
pIC50 [19]: 4.00 to 6.31

Activity (Homo sapiens): 4.7%
Structure (SMILES): FC(F)c1nc2ccccc2n1-c1nc(N2CCOCC2)nc(N2CCOCC2)n1
